Legend:
[1] = molar heat capacity at constant pressure; conditions: 101.33 kPa, Crystal, DSC
[2] = Fast Scanning Calorimeter Method

Cn1c(=O)c2[nH]cnc2n(C)c1=O [3,7-dihydro-1,3-dimethyl-1H-purine-2,6-dione]
[1]
Conditions	molar heat capacity at constant pressure [J/K/mol]
230 K	159.6
240 K	164.8
250 K	170
260 K	175.1
270 K	180.2
280 K	185.3
290 K	190.3
300 K	195.4
310 K	200.4
320 K	205.3
330 K	210.3
340 K	215.2
350 K	220.1
360 K	224.9
370 K	229.7
380 K	234.5
390 K	239.3
400 K	244
410 K	248.7
420 K	253.4

[2], Crystal
Conditions	vapor or sublimation pressure [kPa]
441.6 K	0.0028
447.2 K	0.0033
449.1 K	0.0047
451 K	0.0061
457 K	0.0072
459 K	0.0108
460.4 K	0.0109
466.7 K	0.0133
468.9 K	0.0192
469.8 K	0.021
476.5 K	0.0261
478.7 K	0.0365
479.2 K	0.0409
486.2 K	0.0532
496 K	0.1094
498 K	0.1408
498.5 K	0.1485
505.7 K	0.1888
507.4 K	0.2298
508.3 K	0.2823
515.5 K	0.3649
516.8 K	0.3867
518.2 K	0.4909
525.2 K	0.563
526.2 K	0.8232
528.1 K	0.8994
535 K	1.001
537.9 K	1.619

O=C1c2ccccc2C(=O)c2ccccc21 [9,10(9H,10H)-anthracenedione]
[1]
Conditions	molar heat capacity at constant pressure [J/K/mol]
230 K	182.5
240 K	188.9
250 K	195.4
260 K	201.9
270 K	208.3
280 K	214.8
290 K	221.3
300 K	227.8
310 K	234.3
320 K	240.8
330 K	247.3
340 K	253.8
350 K	260.4
360 K	266.9
370 K	273.5
380 K	280
390 K	286.6
400 K	293.2
410 K	299.8
420 K	306.4

[2], Crystal
Conditions	vapor or sublimation pressure [kPa]
422.8 K	0.0135
427.7 K	0.0152
429.2 K	0.0165
432.2 K	0.0209
437.4 K	0.0345
439.1 K	0.0354
441.6 K	0.0381
447.2 K	0.0511
448.9 K	0.0693
451 K	0.0839
457 K	0.1042
458.8 K	0.148
460.4 K	0.1696
466.7 K	0.1977
468.7 K	0.2749
469.8 K	0.2497
476.5 K	0.3235
478.5 K	0.487

Cn1c(=O)c2c(ncn2C)n(C)c1=O [caffeine]
[2], Crystal 1
Conditions	vapor or sublimation pressure [kPa]
394.7 K	0.0031
398.4 K	0.0035
399.8 K	0.0039
404.1 K	0.0067
408.2 K	0.0092
409.7 K	0.0099
413.5 K	0.0116
417.9 K	0.0158
419.5 K	0.019
422.8 K	0.023
427.7 K	0.0336
429.4 K	0.0376
432.2 K	0.0467
437.4 K	0.0651
439.3 K	0.0736
441.6 K	0.0874
447.2 K	0.1252
449.1 K	0.1611
451 K	0.1622
457 K	0.2346
459 K	0.2609
460.4 K	0.2914
466.7 K	0.4121
468.9 K	0.4821
469.8 K	0.4864
476.5 K	0.7169
478.7 K	0.8343
479.2 K	0.9112
486.2 K	1.078
488.6 K	1.415
